Results on three compounds are retold here after patent publication US20140090094A1, “MODULATORS OF SLC22A7” (BAYER INTELLECTUAL PROPERTY GmbH, priority 2011, published 2014).

Format in all cases: cell-based
Details in all cases: for clearance: 1 min uptake, 0.1 μmol/l radiotracer

One test has as its target T1, OAT1h (Homo sapiens, UniProt Q4U2R8).
T1 construct: expressed in transfected cells; host or cells: 293 cells (HEK-293), pEBTetD plasmid, doxycycline-inducible
T1 sequence (Q4U2R8 1-550 isoform Q4U2R8-2): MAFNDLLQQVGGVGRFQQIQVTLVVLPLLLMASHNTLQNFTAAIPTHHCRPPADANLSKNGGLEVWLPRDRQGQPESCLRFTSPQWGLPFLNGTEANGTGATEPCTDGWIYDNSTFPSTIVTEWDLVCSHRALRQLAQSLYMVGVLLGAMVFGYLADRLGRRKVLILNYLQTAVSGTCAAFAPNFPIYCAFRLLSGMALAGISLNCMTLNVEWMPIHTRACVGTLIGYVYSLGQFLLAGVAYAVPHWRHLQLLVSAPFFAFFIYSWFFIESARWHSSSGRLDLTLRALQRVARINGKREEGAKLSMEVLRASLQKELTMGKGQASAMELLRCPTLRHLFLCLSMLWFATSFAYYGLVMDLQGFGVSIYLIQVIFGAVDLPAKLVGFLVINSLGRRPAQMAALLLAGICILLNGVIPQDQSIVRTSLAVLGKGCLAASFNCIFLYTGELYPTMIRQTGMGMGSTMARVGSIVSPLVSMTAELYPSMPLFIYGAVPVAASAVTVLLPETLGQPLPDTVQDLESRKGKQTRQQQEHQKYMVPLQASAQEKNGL
Briefly: uptake/accumulation in 293 cells expressing OAT1h. On the procedure:
(§1) The trigonelline content of cell lysates was determined by LC-MS/MS. […] 293 cells transfected with pEBTetD plasmids for the expression of SLC22 family carriers as indicated were grown in dishes and incubated overnight with (expression on) or without (off) doxycyclin in standard culture medium. Cells were washed with uptake buffer, incubated (1 min, 37° C.) in uptake buffer with or without 10 μmol/l unlabeled trigonelline, washed, and lysed.
(§2) For measurement of solute uptake, cells were grown in surface culture on 60 mm polystyrol dishes (Nunclon 150288, Nunc, Roskilde, Denmark) precoated with 0.1 g/l poly-L-ornithine in 0.15 M boric acid-NaOH, pH 8.4. Cells were used for uptake experiments at a confluence of at least 70%. Uptake was measured at 37° C. Uptake buffer contains 125 mmol/l NaCl, 25 mmol/l HEPES-NaOH pH 7.4, 5.6 mmol/l (+)glucose, 4.8 mmol/l KCl, 1.2 mmol/l KH2PO4, 1.2 mmol/l CaCl2, and 1.2 mmol/l MgSO4. In glutamate efflux experiments, uptake buffer without KH2PO4 was used to avoid MS interference. After preincubation for at least 20 minutes in 4 ml of uptake buffer, the buffer was replaced with 2 ml of substrate in uptake buffer. The total substrate concentration if not indicated otherwise was 0.1 μmol/l for radiotracer assays and 10 μmol/l for unlabeled compounds. Incubation was stopped after 1 min by rinsing the cells four times each with 4 ml ice-cold uptake buffer. Radioactivity was determined, after cell lysis with 0.1% v/v Triton X-100 in 5 mmol/l TRIS-HCl pH 7.4, by liquid scintillation counting. For LCelectrospray ionization-MS/MS analysis, cells were lysed with methanol and stored at −20° C.
(§3) After centrifugation (1 min, 16000×g, 20° C.) of thawed lysates, 100 μl of the supernatant was mixed with either 10 μl unlabeled MPP+ iodide (0.5 ng/μl) or biphenyl-4-carboxylic acid (Sigma-Aldrich) as internal standard. Of this mixture, […] were analyzed by LCMS/MS on a triple quadrupole mass spectrometer (4000 Q TRAP, Applied Biosystems, Darmstadt, Germany). […] For quantification (scan time 150 ms), the optimal collision energy for argon-induced fragmentation in the second quadrupole was determined for each analyte. […] Sample analyte content was calculated from the analyte response ratio and the slope of the calibration curve, obtained by linear regression. With LC-MS quantitation, solute content of cell lysates was determined for 4 conditions (paired dishes, incubation time 1 min): a) transporter expression on, uptake buffer; b) expression off, uptake buffer; c) expression on, substrate in uptake buffer; d) expression off, substrate in uptake buffer. Acute uptake mediated by heterologously expressed carrier was then calculated as (c−a)−(d−b). […] Protein was measured by the BCA assay (Pierce) with bovine serum albumin as standard. […]

The next test has as its target T2, OAT3h (Homo sapiens, UniProt Q8TCC7).
T2 construct: expressed in transfected cells; host or cells: 293 cells (HEK-293)
T2 sequence (Q8TCC7 1-542): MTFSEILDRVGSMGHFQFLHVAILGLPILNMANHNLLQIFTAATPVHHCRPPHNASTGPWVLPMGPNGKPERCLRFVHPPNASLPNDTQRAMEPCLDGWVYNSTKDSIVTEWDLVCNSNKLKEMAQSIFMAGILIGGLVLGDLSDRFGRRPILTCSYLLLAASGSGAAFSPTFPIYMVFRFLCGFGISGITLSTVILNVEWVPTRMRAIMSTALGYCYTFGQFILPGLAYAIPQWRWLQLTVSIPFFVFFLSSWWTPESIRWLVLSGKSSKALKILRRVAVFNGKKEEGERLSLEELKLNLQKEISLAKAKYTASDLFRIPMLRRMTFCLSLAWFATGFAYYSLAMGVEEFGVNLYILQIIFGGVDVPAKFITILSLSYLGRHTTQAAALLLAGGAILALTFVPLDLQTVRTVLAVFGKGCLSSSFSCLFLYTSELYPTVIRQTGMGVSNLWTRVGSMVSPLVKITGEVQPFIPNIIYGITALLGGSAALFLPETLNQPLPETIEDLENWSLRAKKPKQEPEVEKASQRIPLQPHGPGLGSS
The test is described as follows: 1 min uptake into 293 cells expressing OAT3h. On the procedure:
Uptake was measured at 37° C.

The target of another test is T3, SLC22A13h (Homo sapiens, UniProt Q9Y226).
T3 construct: expressed in transfected cells; host or cells: 293 cells (HEK-293), pEBTetD plasmid, doxycycline-inducible
The test is described as follows: uptake/accumulation in 293 cells expressing SLC22A13h. The procedure:
as §1, §2, §3

T3 sequence (Q9Y226 whole entry): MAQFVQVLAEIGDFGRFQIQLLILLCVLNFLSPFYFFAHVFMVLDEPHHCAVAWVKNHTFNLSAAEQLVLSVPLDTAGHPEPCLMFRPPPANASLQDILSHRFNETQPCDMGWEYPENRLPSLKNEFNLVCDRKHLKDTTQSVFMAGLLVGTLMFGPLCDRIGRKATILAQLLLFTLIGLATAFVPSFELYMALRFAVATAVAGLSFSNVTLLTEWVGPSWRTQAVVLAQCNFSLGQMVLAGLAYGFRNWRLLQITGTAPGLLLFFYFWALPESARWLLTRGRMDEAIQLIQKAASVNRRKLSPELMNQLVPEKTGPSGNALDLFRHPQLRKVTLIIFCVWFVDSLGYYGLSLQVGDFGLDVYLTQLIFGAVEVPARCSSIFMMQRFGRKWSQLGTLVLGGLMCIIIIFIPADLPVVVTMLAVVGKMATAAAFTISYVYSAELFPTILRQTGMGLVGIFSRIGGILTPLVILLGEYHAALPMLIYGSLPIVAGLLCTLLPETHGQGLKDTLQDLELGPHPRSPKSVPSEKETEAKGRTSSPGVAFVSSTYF

Take `N[C@@H](CCC(=O)O)C(=O)O` [glutamate]: the “transport of glutamate (in words)” value on OAT1h, on OAT3h and at SLC22A13h was “do not transport” in each case. The results for the clearance at OAT1h, at OAT3h and on SLC22A13h were 2.5±0.4 μl min-1 mg protein-1, 0.2±0.6 μl min-1 mg protein-1 and 0.3±0.6 μl min-1 mg protein-1, respectively.

Take `O=C(O)c1cc(=O)[nH]c(=O)[nH]1` [orotic acid]: the values for the clearance at OAT1h, at OAT3h and at SLC22A13h were 1.6±0.1 μl min-1 mg protein-1, 0.7±0.1 μl min-1 mg protein-1 and 3.8±0.3 μl min-1 mg protein-1, respectively.

Take `C[n+]1cccc(C(=O)[O-])c1` [trigonelline]: the “accumulation of trigonelline upon carrier expression (in words)” value on OAT1h (expression of OAT1 in 293 cells, FIG. 14) was “without effect”; at SLC22A13h (expression of SLC22A13 in 293 cells, FIG. 14) it was “without effect”.
